In US8481734B2, “Pyrazine derivatives and uses thereof, including in medical imaging and visualization applications” (Medibeacon Development LLC, priority 2008, dated 2013):

Tests used:
[1] = Comparison of clearance rates with an iothalamate reference standard (FIG. 3); type: in vivo, Spraque-Dawley rats; details: Sprague-Dawley rats; iothalamate five rats, compound 18 six rats; FIG. 3 in milliliters per minute
Protocol: FIG. 3 provides a bar graph comparison of the clearance rates of an iothalamate reference standard and compound 18. Spraque-Dawley rats were again used as animal models for studying the clearance rates. Iothalamate clearance rates were measured in five rats, whereas clearance rates for compound 18 were measured in six rats. The clearance rates are expressed in FIG. 3 in terms of milliliters per minute.

[2] = Clearance curve of compound 18 in rats, monitored by fluorescence (RFUs) over time (FIG. 2); type: in vivo; details: Sprague-Dawley rats, i.v. 1 ml of 2 mmol solution in PBS, approx. 6 μmol/kg, four rats, fluorescence (RFU)
Protocol: Four Sprague-Dawley rats were used to obtain the experimental results depicted in FIG. 2, with each of the four lines of the graph representing data obtained from an individual rat. The rats were injected intravenously with 1 ml of a 2 mmol solution of compound 18 in phosphate-buffered saline CBS), giving a final concentration of compound 18 in each animal of approximately 6 μmol/kg. The presence of compound 18 in each of the animals was monitored over time and measured in Relative Fluorescence Units (RFUs). The clearance curve in FIG. 2 provides RFUs over time for each of the four rats. […] The clearance rate then began to level, with complete clearance of compound 18 occurring at approximately 6000 minutes.

[3] = Excitation and emission wavelengths; type: physicochemical
Source text: Compound 18, above, is a longer wavelength compound (excitation ˜500 nm, emission 600 nm orange). To achieve the red shift in both excitation and emission wavelengths, electron donation into the ring was increased by alkyl substitution on the pyrazine ring nitrogens. The synthetic strategy for these longer wavelength analogues involves functionalizing the carboxyls first through amide chemistry described above followed by reductive amination of the pyrazine amino groups. Thus the synthesis of compound 18, above, is presented below. MP-3064 was coupled with Boc-ethylenediamine using the EDC method to afford MP-3183. This material was then converted to MP-3216 by reductive amination using Boc-2-aminoacetaldehyde and sodium triacetoxyborohydride. MP-3216 was purified by flash chromatography and deprotected with TFA to afford the corresponding tetramine salt. This material was then acylated with NHS-m-dPEG12 and purified by HPLC to afford compound 18: […]

## CNC(=O)c1c(I)c(NC(C)=O)c(I)c(C(=O)O)c1I [iothalamate, reference compound]
[1]
  clearance rate, compound 18 compared with iothalamate: virtually the same

## COCCOCCOCCOCCOCCOCCOCCOCCOCCOCCOCCOCCC(=O)NCCNC(=O)c1nc(NCCNC(=O)CCOCCOCCOCCOCCOCCOCCOCCOCCOCCOCCOCCOC)c(C(=O)NCCNC(=O)CCOCCOCCOCCOCCOCCOCCOCCOCCOCCOCCOCCOC)nc1NCCNC(=O)CCOCCOCCOCCOCCOCCOCCOCCOCCOCCOCCOCCOC [compound 18, 3,6-Bis(38-oxo-2,5,8,11,14,17,20,23,26,29,32,35-dodecaoxa-39-azahentetracontan-41-ylamino)-N^2,N^5-bis(38-oxo-2,5,8,11,14,17,20,23,26,29,32,35-dodecaoxa-39-azahentetracontan-41-yl)pyrazine-2,5-dicarboxamide]
[1]
  clearance rate, compound 18 compared with iothalamate: virtually the same
[2]
  time of complete clearance: approximately 6000 minutes
[3]
  excitation wavelength: ~500 nm
[3]; orange
  emission wavelength: 600 nm
